Measured values published in ChEMBL document CHEMBL1136092, “Enantiotracin” (2003).
Values after ≈ are worked out from the molar mass of the structure shown.

How the values were obtained:
Format in all cases: functional
[1] = tested on: Staphylococcus epidermidis; assay: In vitro inhibitory concentration required against Staphylococcus epidermidis (Staphylococcus epidermidis)
Staphylococcus aureus = assay: In vitro inhibitory concentration required against Staphylococcus aureus (Staphylococcus aureus)
Micrococcus luteus = assay: In vitro inhibitory concentration required against Micrococcus luteus (Micrococcus luteus)

Compound | MIC [1] [µg/mL] | MIC (Staphylococcus aureus) [µg/mL] | MIC (Micrococcus luteus) [µg/mL] | MIC ([1]; Staphylococcus epidermidis, read-out: MIC) [µg/mL] | MIC (Staphylococcus aureus; Staphylococcus aureus, read-out: MIC) [µg/mL]
CC[C@H](C)[C@@H](N)C1=N[C@@H](C(=O)N[C@H](CC(C)C)C(=O)N[C@@H](CCC(=O)O)C(=O)N[C@@H](C(=O)N[C@@H]2CCCCNC(=O)[C@@H](CC(N)=O)NC(=O)[C@H](CC(=O)O)NC(=O)[C@@H](Cc3c[nH]cn3)NC(=O)[C@H](Cc3ccccc3)NC(=O)[C@@H]([C@@H](C)CC)NC(=O)[C@H](CCCN)NC2=O)[C@@H](C)CC)CS1 (stereo in doubt; form 2) [BACITRACIN A] | 32 (≈ 22.5 µM) | 4 (≈ 2.81 µM) | – | – | –
CC[C@H](C)[C@@H](N)C1=N[C@@H](C(=O)N[C@H](CC(C)C)C(=O)N[C@@H](CCC(=O)O)C(=O)N[C@@H](C(=O)N[C@@H]2CCCCNC(=O)[C@@H](CC(N)=O)NC(=O)[C@H](CC(=O)O)NC(=O)[C@@H](Cc3c[nH]cn3)NC(=O)[C@H](Cc3ccccc3)NC(=O)[C@@H]([C@@H](C)CC)NC(=O)[C@H](CCCN)NC2=O)[C@@H](C)CC)CS1 (stereo in doubt; form 1) [BACITRACIN A] | – | – | < 0.013 | 32 (≈ 22.5 µM) | 4 (≈ 2.81 µM)
